Test results from article PMC2726284, “Electron Crystallography Reveals Plasticity within the Drug Binding Site of the Small Multidrug Transporter EmrE” (Journal of Molecular Biology, 2008).

Assays:
EmrE [1] = molecular target: T1, EmrE (Escherichia coli, UniProt P23895); experiment: [3H]TPP+ radioligand competition; exchange in 2-D crystals and cryo-EM projection map; format: binding
T1 construct: 6xHis-tagged EmrE, purified, detergent (DDM)-solubilized

EmrE [2] = molecular target: T1, EmrE; experiment: [3H]TPP+ radioligand competition; cryo-EM projection structure of 2-D co-crystals at […] Å; format: binding
EmrE [3] = molecular target: T1, EmrE; experiment: [3H]TPP+ radioligand binding to solubilized EmrE and 2-D crystals; settings: cited from earlier work

T1 sequence (P23895 whole entry): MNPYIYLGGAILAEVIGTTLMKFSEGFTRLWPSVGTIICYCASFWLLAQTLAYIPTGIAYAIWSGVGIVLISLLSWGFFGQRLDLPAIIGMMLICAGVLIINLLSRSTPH

Compound | Ki (EmrE [1]) [µM] | other results
Cc1cc(N)c2ccccc2[n+]1CCCCCCCCCC[n+]1c(C)cc(N)c2ccccc21 [DQ^2+, dequalinium] | 0.083 ± 0.009 | 
CC[n+]1c(-c2ccccc2)c2cc(N)ccc2c2ccc(N)cc21 [Eth^+, ethidium] |  | Ki (EmrE [2]): 1 ± 0.9 µM
CC[N+](C)(CC)CCC[n+]1c(-c2ccccc2)c2cc(N)ccc2c2ccc(N)cc21 [PP^2+, propidium] | 0.019 ± 0.004 | 
c1ccc([P+](c2ccccc2)(c2ccccc2)c2ccccc2)cc1 [TPP^+, tetraphenylphosphonium] |  | Kd (EmrE [3]): 0.0024 µM
